Reference: publication PMC7714489 (Journal of medicinal chemistry, 2015)

Columns and labels:
Type in all cases: cell-based
[1] = system: PC3 cells (a human prostate cancer cell line); assay: Toxicity in PC3 cells; conditions: 100 μM; data not shown
thymidine uptake = assay: Effect on thymidine uptake; conditions: 100 μM; data not shown
cellular GAPDH levels = assay: Effect on cellular GAPDH levels; conditions: 100 μM; data not shown
[2] = system: subgenomic HCV replicon in Huh-7 cells; assay: HCV subgenomic replicon assay in Huh-7 cells; conditions: Huh-7 replicon
HepG2 cells = assay: Lactate production assay; conditions: 10 μM, HepG2, 14 days

SMILES | toxicity in PC3 cells [1] | effect on thymidine uptake (thymidine uptake) | effect on cellular GAPDH levels (cellular GAPDH levels) | inhibition of HCV RNA replication (in words) [2] | cell death in lactic acid experiment (HepG2 cells)
CCOC(=O)CCc1ccccc1O[P@@](=O)(N[C@@H](C)C(=O)OCC)OC[C@H]1O[C@@H](n2cnc3c(N)nc(N)nc32)[C@](C)(O)C1O (stereo in doubt) [15b(Rp), Ethyl 3-(2-(((R)-(((2R,3R,4R,5R)-5-(2,6-Diamino-9H-purin-9-yl)-3,4-dihydroxy-4-methyltetrahydrofuran-2-yl)methoxy)(((S)-1-ethoxy-1-oxopropan-2-yl)amino)phosphoryl)oxy)phenyl)-propanoate] | did not observe any toxicity | did not observe | did not observe |  | 
COc1nc(N)nc2c1ncn2[C@@H]1O[C@H](COP(=O)(N[C@@H](C)C(=O)OCC(C)(C)C)Oc2cccc3ccccc23)[C@@H](O)[C@@]1(C)O (stereo partly drawn) [compound 1, reference compound] |  |  |  | nanomolar potency | excessive cell death
CCOC(=O)CCc1ccccc1OP(=O)(OC[C@H]1O[C@@H](n2cnc3c(N)nc(N)nc32)[C@](C)(O)[C@@H]1O)Oc1ccccc1CCC(=O)OCC [compound 18] |  |  |  | inactive | 
